Measurements taken from PubChem BioAssay (NCI).
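The compound was tested at five concentrations on cells cultured in 96-well plates, with a 48-hour exposure period. The concentration for 50% growth inhibition is given as GI50. At the TGI there is no net growth.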 Where a SMILES comes first, the peptide text is derived from it. The star is where a group is joined. Boc = CC(C)(C)OC(=O)*; Bn = c1ccc(C*)cc1

What was measured:
Test in all cases: growth of human tumour cells (NCI), 48 h
HL-60(TB) leukemia = system: HL-60(TB) leukemia
A498 renal = system: A498 renal
NCI-H23 lung = system: NCI-H23 lung
HCT-15 colon = system: HCT-15 colon
HCT-116 colon = system: HCT-116 colon
786-0 renal = system: 786-0 renal
HOP-92 NSCLC = system: HOP-92 NSCLC
SK-MEL-2 melanoma = system: SK-MEL-2 melanoma
HT29 colon = system: HT29 colon
SN12C renal = system: SN12C renal
NCI-H226 lung = system: NCI-H226 lung
PC-3 prostate = system: PC-3 prostate
MDA-N = system: MDA-N
SK-MEL-28 melanoma = system: SK-MEL-28 melanoma
DU-145 prostate = system: DU-145 prostate

SMILES	TGI (HL-60(TB) leukemia) [µM]	TGI (A498 renal) [µM]	TGI (NCI-H23 lung) [µM]	TGI (HCT-15 colon) [µM]	TGI (HCT-116 colon) [µM]	TGI (786-0 renal) [µM]	TGI (HOP-92 NSCLC) [µM]	TGI (SK-MEL-2 melanoma) [µM]	TGI (HT29 colon) [µM]	TGI (SN12C renal) [µM]	TGI (NCI-H226 lung) [µM]	TGI (PC-3 prostate) [µM]	TGI (MDA-N) [µM]	TGI (SK-MEL-28 melanoma) [µM]	TGI (DU-145 prostate) [µM]	GI50 (HL-60(TB) leukemia) [µM]	GI50 (HCT-116 colon) [µM]	GI50 (PC-3 prostate) [µM]
CC(=O)c1c2c(cc3c1CC1(C3)Cc3cc4c(c(C(C)=O)c3C1)CCCC4)CCCC2	40	> 100	> 100	> 100	> 100	> 100	> 100	83.2	> 100	> 100	> 100	> 100	> 100					
CC(C)=CC[C@H]1C[C@@]2(CC=C(C)C)C(=O)/C(=C(/O)c3ccccc3)C(=O)[C@](CC=C(C)C)(C2=O)C1(C)C		26.3	73.9	26.5	14.5	21.4	19.1	8.24	23.4	14.8	36.2	19.3	20.1	30.3				
C/C(CC(=O)Nc1ccccc1)=N\NC(N)=S	> 100		> 100		> 100	> 100	> 100	> 100	> 100		> 100			> 100				
CC1(C)N([O-])[N+](=O)C1(Br)c1ccccc1 (stereo unspecified)	> 100		> 100	> 100	> 100	> 100	> 100	> 100	> 100	> 100	> 100	> 100	> 100	> 100	> 100			
CC(=O)OC1CC2C(C)(C)OC(=O)CC(OC(C)=O)[C@]2(C)C2CCC3(C)C(=CCC3c3ccoc3)[C@]12C (stereo partly specified)	> 100	> 100	> 100	> 100	58.6	> 100	29.9	25.1	39.3	> 100	69.6			> 100				
CCC1(CC)C(=O)NN(C(=O)c2ccc(Cl)cc2)C1=O	> 100		> 100	> 100	> 100	> 100		> 100	> 100	> 100	> 100	> 100	> 100	> 100	> 100			
O=C1COc2cc3c(cc2N1)SCCC(=O)N3	> 100	> 100	> 100		> 100	> 100	> 100	> 100	> 100	> 100	> 100			> 100				
COC1=CC(=O)c2c(n[nH]c2CCNC(=O)OCc2ccccc2)C1=O	41.9	32.7	15.5	30.8	24.9	31.3		23.7	40.8	30.1		> 100	4.61	24.5				
O=c1cc(-c2ccc3ccccc3c2)[nH]c2ncccc12	4.55	48.7	> 100	> 100	> 100	> 100	75.6	> 100	> 100	> 100	> 100	> 100		> 100	> 100	1.8	3.83	10.4
O=c1[nH]c2cc3[nH]c(=O)c(=O)[nH]c3cc2[nH]c1=O	> 100	> 100	> 100	> 100	> 100	> 100		> 100	> 100	> 100	> 100	> 100		> 100	> 100			
COC(=O)C1=C(C(=O)OC)C(OO)(c2ccccc2)OC1=O (stereo unspecified)	> 100		> 100	> 100	> 100	> 100	> 100	> 100	> 100	> 100	> 100	> 100	> 100	> 100	> 100			
O=c1[nH]cc(COCC(O)CO)c(=O)[nH]1 (stereo unspecified)	> 100	> 100	> 100	> 100	> 100	> 100	> 100	> 100	> 100	> 100	> 100			> 100				
O=[N+]([O-])c1cc2ccc1OCc1cccc(n1)COc1ccc(cc1[N+](=O)[O-])C=NCCCCCCCCN=C2		> 100	> 100	> 100	> 100	> 100	> 100	> 100	> 100	> 100	> 100	> 100	> 100	> 100	> 100			
CCOC(=O)CON=c1c2ccccc2ccc2ccccc12	> 100		> 100	> 100	> 100	> 100	> 100	> 100	> 100	> 100	> 100	> 100	> 100	> 100	> 100			
COC(=O)C(CC(C)C)NC(=O)CNC(=O)C(Cc1ccc(OCc2ccccc2)cc1)NC(=O)C(COCc1ccccc1)NC(=O)OC(C)(C)C (stereo unspecified) (Boc-S(Bn)Y(Bn)GL-OMe; configuration not given here)	39.7		> 100		> 100	> 100	> 100		> 100	> 100	> 100	> 100	> 100	> 100	> 100			
Cn1c(-c2cccs2)cc(-c2ccsc2)c1-c1cccs1		> 100	> 100	> 100	> 100	> 100	> 100		> 100	> 100	> 100	> 100	> 100	> 100	> 100			
O=C(/C=N/O)Nc1ccc(Cl)c(I)c1	54.1		42.3	63.9	25.5	88.4		31.3	> 100	63.9	17.8			72.6				
